# Experimental data as given in patent US9096833B2, “Methods of treating pre-malignant ductal cancer with autophagy inhibitors” (GEORGE MASON UNIVERSITY, priority 2009, dated 2015).
# Tests used:
# [1] = tested on: DCIS malignant precursor cells
# Procedure: Tissue collection. […] Gross tissue pathology at the time of procurement was assessed by a board certified pathologist. Tissue containing DCIS lesions was excised for further macrodissection and rinsed in sterile phosphate buffered saline to remove sentinel lymph node dye. Using sterile technique, ductal tissue was dissected from surrounding breast adipose/fibrous tissue. The ductal tissue was rinsed in serum free DMEM/F12 medium (Invitrogen, Carlsbad, Calif., USA) supplemented with human recombinant EGF (10 ng/mL; Cell Signaling Technology, Danvers, Mass., USA or Millipore, Billerica, Mass., USA), insulin (10 μg/mL; Roche, Indianapolis, Ind., USA), streptomycin sulfate (100 μg/mL; Sigma, St. Louis, Mo., USA) and gentamicin sulfate (20 μg/mL; Sigma) prior to distribution in culture flasks (MidSci, St. Louis, Mo., USA). Ductal tissue was allowed to attach to the culture surface and observed daily for cellular outgrowths. Non-adherent organoids were removed from the culture flask.
# Organoid ex vivo culture. Dissected breast ductal tissue was grown in 115 cm^2 TPP reclosable flasks (MidSci) or 10 cm^2 culture tubes (MidSci) in serum free DMEM/F12 medium supplemented with human recombinant EGF (10 ng/mL), insulin (10 μg/mL), streptomycin sulfate (100 μg/mL) and gentamicin sulfate (20 μg/mL), with or without 0.36% (v/v) murine Engelbreth-Holm-Swarm (EHS) derived, growth factor reduced, basement membrane extract (Trevigen, Gaithersburg, Md., USA) at 37° C. in a humidified 5.0% CO2 atmosphere. Medium was replaced three times per week. Cultures were maintained continuously for up to one year. Periodically, organoids were removed, under microscopic visualization, for propagation into new culture flasks or phenotypic and molecular analysis.
# (§1) Pharmacological inhibition of autophagy. […] CO-containing medium was replaced three times per week for a period of 6 months.
# (§2) Statistics. The Student T-test, two tailed with Welch's correction, was used to calculate the p-value, and to determine the statistical difference of epithelial outgrowth area before and after CQ treatment. P values <0.05 were considered significant. Standard deviation (SO) or standard error of the mean (SEM) was calculated for group comparisons. Wilcoxon rank sum was used to determine the differences between CQ treated and untreated groups for the reverse phase protein arrays. A p=0.1 was considered different for small sample sizes.
# [2] = tested on: autophagy associated pathways; test: Cell signaling pathway mapping by reverse phase protein microarray (RPMA) of DCIS spheroids pre and post chloroquine; type: cell-based, human; conditions: for autophagy associated signal pathway proteins/endpoints (Atg5, AKT, ERK, mTOR, IRS-1, p38 etc.) by RPMA: chloroquine phosphate 50 μM for 4 days, spheroids pre vs post treatment, n=3
# Procedure: as §1, §2
# [3] = tested on: DCIS organoid culture spheroids; test: Autophagosome lysosome imaging with LysoTracker Red in DCIS organoid culture; type: cell-based, human; conditions: chloroquine phosphate (50 μM) for 2 weeks
# [4] = tested on: DCIS organoid cell cultures; test: H&E histomorphology of chloroquine treated DCIS organoid cell cultures; type: cell-based, human; conditions: chloroquine phosphate (50 μM)
# Procedure: as §1
# Immunohistochemistry. Formalin fixed murine tissue or DCIS organoids were processed and paraffin embedded by commercial laboratories (AML Laboratories, Inc, Rosedale, Md. or Bi-Biomics, Nampa, Id.). Formalin fixed paraffin embedded (FFPE) tissue sections (5 μm or 1 μm thickness) mounted on positively charged glass slides were baked at 56° C. for 20 min., deparaffinized in xylene and rehydrated in a series of graded alcohols (100%, 95%, and 70%) with a final rinse in wash buffer (Dako, Carpinteria, Calif., USA). Antigen retrieval, when necessary, was performed with proteinase K or heat induced epitope retrieval. Immunostaining was performed on a Dako Autostainer with an Envision+HRP staining kit (Dako) per manufacturer's instructions. Stained tissue sections were counterstained with Hematoxylin (Dako), rinsed in distilled water and developed in Scott's Tap Water Substitute solution. Cover slips were applied using aqueous mounting medium (Paramount; Dako). Images were captured with an Olympus BX51 microscope using 4×, 10×, 20×, or 100× objectives.
smiles,measurement,setting,value
"CCN(CC)CCCC(C)Nc1ccnc2cc(Cl)ccc12 (stereo not drawn) [chloroquine, N′-(7-chloroquinolin-4-yl)-N,N-diethyl-pentane-1,4-diamine]",explants that did not have any spheroids following chloroquine treatment,"[1]; case 09-148, chloroquine phosphate 50 μM",12 out of 14
same,spheroids after treatment,"[1]; case 09-301, n=3, 20.5±7.8 prior to treatment",no spheroids observed
same,ex vivo invasion of autologous stroma,[1]; chloroquine phosphate,suppressed ex vivo invasion of autologous stroma
same,"inhibition of spheroid outgrowth, CQ in combination with tamoxifen","[1]; cultured DCIS cells, in combination with anti-estrogen compound (tamoxifen)",pronounced effect
same,"number of spheroids generated post chloroquine treatment, majority of explants","[1]; two different patient DCIS cases, up to 113 spheroids per duct organoid untreated",zero
same,apoptosis (elevation of cleaved PARP Asp214),[2]; as early as 48 hours post treatment,induced apoptosis
same,"autophagy associated signal pathway proteins/endpoints (Atg5, AKT, ERK, mTOR, IRS-1, p38 etc.) by RPMA",[2]; listed as CQ,suppressed
same,"autophagy associated signal pathway proteins/endpoints (Atg5, AKT, ERK, mTOR, IRS-1, p38 etc.) by RPMA",[2]; listed as Chloroquine,markedly inhibited
same,"autophagy associated signal pathway proteins/endpoints (Atg5, AKT, ERK, mTOR, IRS-1, p38 etc.) by RPMA",[2]; listed as chloroquine phosphate,suppressed autophagy associated proteins
same,spheroid integrity and LysoTracker Red distribution,[3],"Dissociation of the spheroid, and diffuse accumulation of LysoTracker Red"
same,histology of organoid cultured in the presence of chloroquine for 6 months,[4]; 6 months,complete absence of cellular outgrowths and degenerated cells within the duct
same,histology of organoid 2 days post chloroquine treatment,[4]; 2 days,Degeneration of the invading DCIS cells within the organoid
